Test results published in ChEMBL document CHEMBL1681698, “HY251, a novel decahydrocyclopenta[a]indene analog, from Aralia continentalis induces apoptosis via down-regulation of AR expression in human prostate cancer LNCaP cells” (Bioorg Med Chem Lett, 2011).
Active and inactive are the calls of the source. The rule behind the calls is not given here.

How the values were obtained:
LNCaP [1] = test: Induction of apoptosis in human androgen-dependent LNCAP cells assessed as […] after 24 hrs by MTT assay; format: functional, cell-based
LNCaP [2] = test: Induction of apoptosis in human androgen-dependent LNCAP cells assessed as nuclei DNA fragmentation at 95 uM after 24 hrs by TUNEL assay; format: functional, cell-based
LNCaP [3] = test: Induction of apoptosis in human androgen-dependent LNCAP cells assessed as increase in active caspase 9 at 95 uM up to 48 hrs by Western blot analysis; format: functional, cell-based
LNCaP [4] = test: Induction of apoptosis in human androgen-dependent LNCAP cells assessed as increase in active caspase 3 at 95 uM up to 48 hrs by Western blot analysis; format: functional, cell-based
LNCaP [5] = test: Induction of apoptosis in human androgen-dependent LNCAP cells assessed as PARP cleavage at 95 uM after 12 hrs by Western blot analysis; format: functional, cell-based
LNCaP [6] = test: Induction of apoptosis in human androgen-dependent LNCAP cells assessed as cytochrome c release from mitochondria at 95 uM after 24 hrs by Western blot analysis; format: functional, cell-based
LNCaP [7] = test: Induction of apoptosis in human androgen-dependent LNCAP cells assessed as inhibition of androgen receptor expression at 95 uM by Western blot analysis; format: functional, cell-based; conditions: TDE = time-dependent effect
LNCaP [8] = test: Induction of apoptosis in human androgen-dependent LNCAP cells assessed as inhibition of PSA protein expression at 95 uM by Western blot analysis; format: functional, cell-based; conditions: TDE = time-dependent effect
LNCaP [9] = test: Induction of apoptosis in human androgen-dependent LNCAP cells assessed as inhibition of androgen receptor gene expression at 95 uM by RT-PCR analysis; format: functional, cell-based
LNCaP [10] = test: Induction of apoptosis in human androgen-dependent LNCAP cells assessed as inhibition of PSA gene expression at 95 uM by RT-PCR analysis; format: functional, cell-based
LNCaP [11] = test: Induction of apoptosis in human androgen-dependent LNCAP cells assessed as inhibition of androgen receptor gene expression at 95 uM by RT-PCR analysis in presence of 1 nM […]; format: functional, cell-based
LNCaP [12] = test: Induction of apoptosis in human androgen-dependent LNCAP cells assessed as inhibition of PSA gene expression at 95 uM by RT-PCR analysis in presence of 1 nM […]; format: functional, cell-based
[13] = Induction of apoptosis in human hormone-refractory C4-2B cells assessed as cell viability after 24 hrs by MTT assay; format: functional; conditions: LNCaP C4-2B

IC50 (LNCaP [1]): 95 µM
Compound: C=CC1CC2(O)CC3(O)CCC=CC3C2(O)C1(O)CCC (stereo not drawn)
Activity (LNCaP [2]): Active | Activity (LNCaP [3]): Active | Activity (LNCaP [4]): Active | Activity (LNCaP [5]): Active | Activity (LNCaP [6]): Active | Activity (LNCaP [7]): tde | Activity (LNCaP [8]): tde | Activity (LNCaP [9]): Active | Activity (LNCaP [10]): Active | Activity (LNCaP [11]): Active | Activity (LNCaP [12]): Active | IC50 [13]: 199 µM
